From US9000015B2, “Compounds for the treatment of addiction” (Gilead Sciences, Inc., priority 2011, dated 2015)

How the values were obtained:
[1] = biological target: recombinant human ALDH2 (Homo sapiens (Human), UniProt P05091); assay: ALDH2 assay (NADH formation); assay type: biochemical; settings: 60 min pre-incubation, 150 uM formaldehyde, 2.5 mM NAD+; read-out: IC50 HALDH2
Experimental: Standard ALDH2 reaction mixtures contained 150 uM formaldehyde, 2.5 mM NAD^+, 10 mM MgCl2 and 10 nM recombinant human ALDH2 in 50 mM Hepes buffer, pH 7.4, 0.01% Tween 20 in a final volume of 50 ul using 384-well plates. After 60 min of pre-incubation of compound with ALDH2 and formaldehyde, the reaction was started by adding NAD+ and the reaction mixture was allowed to proceed for 90 minutes. Activity of the enzyme was determined by monitoring NADH formation using Perkin-Elmer Envision Reader with excitation and emission wavelengths set at 340 and 460 nm, respectively.
(§1) Note: […] refers to the concentration of a compound that inhibits a reaction by 50%. In the case of competitive inhibition, IC50=2Ki when the substrate is present at the Km concentration, as per the relationship: Ki=IC50/[1+(substrate concentration/Km)].

[2] = biological target: HMAO-A (Homo sapiens (Human), UniProt P21397); assay: MAO-A assay (luminogenic MAO substrate); assay type: biochemical; settings: microsome MAO-A, 160 uM substrate
Sequence of HMAO-A (P21397 whole entry): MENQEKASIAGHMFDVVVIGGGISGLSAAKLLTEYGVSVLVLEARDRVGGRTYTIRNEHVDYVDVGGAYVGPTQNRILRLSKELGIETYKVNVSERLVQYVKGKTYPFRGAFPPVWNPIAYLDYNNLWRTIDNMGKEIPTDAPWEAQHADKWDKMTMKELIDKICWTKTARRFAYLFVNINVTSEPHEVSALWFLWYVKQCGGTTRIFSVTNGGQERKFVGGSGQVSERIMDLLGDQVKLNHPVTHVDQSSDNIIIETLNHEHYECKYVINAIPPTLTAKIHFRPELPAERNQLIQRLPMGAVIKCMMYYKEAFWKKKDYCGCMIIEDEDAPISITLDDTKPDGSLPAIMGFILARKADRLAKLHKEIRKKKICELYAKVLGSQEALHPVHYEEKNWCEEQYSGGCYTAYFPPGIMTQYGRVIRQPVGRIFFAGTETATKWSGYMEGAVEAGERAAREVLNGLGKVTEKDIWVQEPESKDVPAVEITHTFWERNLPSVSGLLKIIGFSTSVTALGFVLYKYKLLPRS
Experimental: (§2) MAO assays included luminogenic MAO substrate, reaction buffers, Luciferin Detection and the reconstitution buffer with eserase. Standard MAO reaction mixtures included microsome contained MAO-A (2 ug) or MAO-B (10 ug), 160 uM substrate for MAO-A or 16 uM substrate for MAO-B, MAO-A buffer (100 mM Hepes buffer, pH 7.5, 5% glycerol) or MAO-B buffer (100 mM Hepes, pH 7.5, 5% glycerol, 10% dimethyl sulfoxide) in a final volume of 30 ul. After 20 minutes of pre-incubation of the enzyme with compounds, the reaction was initiated by adding enzyme substrate and the reaction was allowed to proceed for 60 minutes. Reconstituted Luciferin Detection Reagent (30 ul) was then added is added to simultaneously stop the MAO reaction and convert the methyl ester derivative to luciferin and produce light. The amount of light produced is directly proportional to the activity of MAO. The mixtures were further incubated for 20 minutes and activity of the enzyme was determined using Perkin-Elmer Envision Reader.
as §1

[3] = biological target: HMAO-B (Homo sapiens (Human), UniProt P27338); assay: MAO-B assay (luminogenic MAO substrate); assay type: biochemical; settings: microsome MAO-B, 16 uM substrate
Sequence of HMAO-B (P27338 whole entry): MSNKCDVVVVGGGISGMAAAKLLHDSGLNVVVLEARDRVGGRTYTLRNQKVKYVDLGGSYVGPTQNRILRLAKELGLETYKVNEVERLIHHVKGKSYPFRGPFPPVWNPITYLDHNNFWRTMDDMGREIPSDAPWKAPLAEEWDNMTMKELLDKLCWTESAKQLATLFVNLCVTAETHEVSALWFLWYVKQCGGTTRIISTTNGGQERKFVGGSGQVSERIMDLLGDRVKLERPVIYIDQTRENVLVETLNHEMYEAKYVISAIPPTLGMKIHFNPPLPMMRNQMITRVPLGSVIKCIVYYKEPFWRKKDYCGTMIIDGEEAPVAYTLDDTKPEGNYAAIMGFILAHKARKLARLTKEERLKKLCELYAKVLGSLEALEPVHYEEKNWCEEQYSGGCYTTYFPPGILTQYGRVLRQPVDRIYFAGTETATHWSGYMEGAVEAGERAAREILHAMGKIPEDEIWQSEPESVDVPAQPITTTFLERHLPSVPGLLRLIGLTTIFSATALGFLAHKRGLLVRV
Experimental: as §2, §1

[4] = test system: Alcohol-preferring (iP) male rats; assay: Rat alcohol self administration; assay type: in vivo; settings: 1 hr before session, vs vehicle
Source text: Alcohol-preferring (iP) male rats were trained to daily (Monday to Friday) self-administer alcohol (10% v/v) under operant conditions. A fixed-ratio of 3 (FR3), where rats had to press a lever 3 times to get one drop of alcohol during 20-min sessions was used (Cowen et al, 2005a; Cowen et al., 2005b; Lawrence et al., 2006). Availability of alcohol was conditioned by the presence of an olfactory cue (2 drops of vanilla essence, placed on the bedding of the operant chamber directly under the active lever), plus a 1-sec light stimulus when FR3 was obtained. For each session, total alcohol and water responses were recorded. Following acquisition of lever pressing behavior and stable alcohol self-administration, rats were administered oral vehicle or compound of Example 5 (5, 10 and 30 mg-eq/kg) 1 hr before each session in a counterbalanced order. Every rat received all drug doses and vehicle once per week in a randomly assigned order.

[5] = test system: male Sprague Dawley (SD) rats; assay: Rat cocaine cue reinstatement; assay type: in vivo; settings: for inhibition of cocaine cue reinstatement compared to vehicle: 1 hr before session
Experimental: Training of male Sprague Dawley (SD) rats had 3 separate stages. First, during self administration, animals were trained to lever press for cocaine with presentation of concomitant cues associated with drug delivery. Rats that reached criteria for addiction were included in the study. Afterward, during cue extinction, cocaine-cue dependent behavior was extinguished. Lastly, during cocaine cue reinstatement, the effect of compounds was tested on lever presses upon cue presentation (FIG. 2).
Rats were trained to self administer i.v. cocaine (0.35 mg/kg/injection) daily (Monday to Friday) in standard operant chambers with retractable levers (Coulbourn Instruments, PA). During the daily 2 hr session, rats received a 0.05 ml infusion of 0.35 mg/kg cocaine every time the active lever was pressed. A cue light and tone turned on for 2 sec together with activation of a pump that delivered the cocaine solution. Rats were required to maintain an infusion rate of ≧20+ per day for at least 10 days before being moved to extinction training.
During extinction sessions lever presses no longer produced cocaine infusion and cue light/tone presentation was absent. Rats received a maximum of 15 extinction sessions.
On the next day after reaching extinction criteria, rats were treated orally with vehicle (Formulation 2B: 25% PEG400/5% Vit E TPGS/1% SLS/69% water with 0.5% Methocel) or drug (compound of Example 2 or compound of Example 5) before the cue reinstatement session. Cue reinstatement began with a tone and cue light. This 2 hr session was identical to the self-administration session (cue light and tone present upon active lever press) except that no cocaine was delivered. The number of active lever presses was compared to extinction lever responding. This is considered a measure of reinstatement. The next day, rats were returned to extinction sessions for at least 2 or 3 more sessions. Rats then received a second and last reinstatement session with an opposite treatment to the one received on the first reinstatement session (vehicle or drug treatment). […] The light/tone presentation triggers this response and it is interpreted as a measure of reinstatement even though cocaine is not available.

[6] = test system: Male SD rats; assay: Rat nicotine self administration, acute treatment; assay type: in vivo; settings: independent groups
Experimental: (§3) Male SD rats were trained to self administer i.v. nicotine (0.03 mg/kg/inj) daily (Monday to Friday) in standard operant chambers with retractable levers (MED Associates, Inc) as previously published (Levin et al., 2003; Levin et al., 2007). During the daily 45 min session, rats received 0.05 ml infusion of 0.03 mg/kg/infusion of nicotine every time the active lever was pressed. A cue light and tone turned on for 0.5 sec together with the activation of a pump that delivered the nicotine solution. Daily sessions were run for at least 10 days before the initiation of drug testing. Solutions of compounds of Example 2 and Example 5 were prepared fresh daily in Formulation 2B: 25% PEG400/5% Vit E TPGS/1% SLS/69% water with 0.5% Methocel) for oral dosing. Compound of Example 2 doses were administered in a counterbalanced design for testing 1 hr before each nicotine session. Every rat received all drug doses and vehicle in a randomly assigned order. The oral drug administrations were made twice per week.
Compound of Example 5 was tested in a study using 4 independent groups. Each group received either oral vehicle or 1 of the 3 doses of compound of Example 5 (5, 10 or 30 mg-eq/kg). […] The 5 mg/kg dose was ineffective.

[7] = test system: Male SD rats; assay: Rat nicotine self administration, 7-day chronic treatment; assay type: in vivo
Experimental: as §3
Upon completion of the acute compound of Example 5 treatment study, the same animals were used to test the effect of 7-day chronic oral administration of compound of Example 5 in the nicotine self administration model. Rats were treated orally with compound of Example 5 (5, 10 or 30 mg-eq/kg) or vehicle 1 hr before nicotine self administration session for 7 consecutive days. […] Similar to the acute treatment, the 5 mg-eq/kg dose was ineffective (FIG. 7). […] Animals in nicotine self administration studies had to reach pre defined criteria (e.g. rat strain, minimum number of nicotine infusions, consistent baseline nicotine self administration throughout the study, patent iv catheters, etc.) to be included in analysis.

Sequence of recombinant human ALDH2 (P05091 18-517): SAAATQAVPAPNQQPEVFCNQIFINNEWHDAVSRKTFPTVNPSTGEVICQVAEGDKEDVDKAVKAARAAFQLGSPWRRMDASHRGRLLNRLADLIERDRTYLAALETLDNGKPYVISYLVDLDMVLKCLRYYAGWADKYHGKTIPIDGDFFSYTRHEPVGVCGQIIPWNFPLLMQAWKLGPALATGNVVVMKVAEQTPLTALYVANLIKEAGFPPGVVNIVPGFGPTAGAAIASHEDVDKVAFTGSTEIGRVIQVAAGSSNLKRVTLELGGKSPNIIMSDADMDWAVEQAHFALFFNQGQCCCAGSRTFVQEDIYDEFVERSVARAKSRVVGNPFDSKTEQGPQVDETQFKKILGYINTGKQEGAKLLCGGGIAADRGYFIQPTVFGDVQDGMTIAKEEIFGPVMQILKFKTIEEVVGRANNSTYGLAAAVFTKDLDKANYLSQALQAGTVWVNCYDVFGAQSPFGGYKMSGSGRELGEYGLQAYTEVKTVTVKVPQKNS

O=C(NCc1ccc(-c2ccn(COP(=O)(O)O)c(=O)c2)cc1)c1c(Cl)cccc1Cl [Compound 14, phosphoric acid mono-(4-{4-[(2,6-dichloro-benzoylamino)-methyl]-phenyl}-2-oxo-2H-pyridin-1-ylmethyl) ester]
IC50 [1]: > 10 µM
IC50 [2]: > 130 µM
IC50 [3]: > 130 µM
number of lever presses for alcohol ([4]; 10 mg-eq/kg oral): significantly decreased
number of lever presses for alcohol ([4]; 30 mg-eq/kg oral): significantly decreased
inhibition of cocaine cue reinstatement compared to vehicle ([5]; 2.5 mg-eq/kg oral, p>0.05, N.S.): 30%
effect on cocaine cue reinstatement versus vehicle ([5]; 2.5 mg-eq/kg oral, lowest dose tested): not significantly different from vehicle
inhibition of cocaine cue reinstatement compared to vehicle ([5]; 5 mg-eq/kg oral): 59%
inhibition of cocaine cue reinstatement compared to vehicle ([5]; 10 mg-eq/kg oral): 55%
inhibition of cocaine cue reinstatement compared to vehicle ([5]; 30 mg-eq/kg oral): 50%
effect on number of nicotine infusions compared to vehicle ([6]; 5 mg-eq/kg oral): ineffective
inhibition of number of nicotine infusions compared to vehicle ([6]; 10 mg-eq/kg oral): 51%
inhibition of number of nicotine infusions compared to vehicle ([6]; 30 mg-eq/kg oral): 68%
effect on number of nicotine infusions compared to vehicle ([7]; 5 mg-eq/kg oral, 7 consecutive days): ineffective
inhibition of number of nicotine infusions compared to vehicle ([7]; 10 mg-eq/kg oral, 7 consecutive days): 48%
inhibition of number of nicotine infusions compared to vehicle ([7]; 30 mg-eq/kg oral, 7 consecutive days): 62%
tolerance to the therapeutic effect ([7]; 7-day chronic oral administration, data not shown): no development of tolerance
